Reference: ChEMBL document CHEMBL1909046, “DrugMatrix in vitro pharmacology data”
pIC50: −log10 of the molar value. Where a SMILES comes first, the peptide text is derived from it. Bridges are numbered along the chain shown (N, C = ends). [ ]: non-standard residue; d: D form. The star is where a group is joined. Threoninol(2S,3R) = C[C@@H](O)[C@H](CO)N*

Assays:
[1] = DRUGMATRIX: beta-Lactamase enzyme inhibition (substrate: Nitrocefin); design: species or system Bacillus cereus; conditions: Not Active = under 50% inhibition at 10 µM
[2] = molecular target: T1, Substance-K receptor (Homo sapiens, UniProt P21452); type: cell membranes, CHO, Membrane; conditions: cho; note: in other assays of this panel Not Active means under 50% inhibition at 10 µM
T1 sequence (P21452 whole entry): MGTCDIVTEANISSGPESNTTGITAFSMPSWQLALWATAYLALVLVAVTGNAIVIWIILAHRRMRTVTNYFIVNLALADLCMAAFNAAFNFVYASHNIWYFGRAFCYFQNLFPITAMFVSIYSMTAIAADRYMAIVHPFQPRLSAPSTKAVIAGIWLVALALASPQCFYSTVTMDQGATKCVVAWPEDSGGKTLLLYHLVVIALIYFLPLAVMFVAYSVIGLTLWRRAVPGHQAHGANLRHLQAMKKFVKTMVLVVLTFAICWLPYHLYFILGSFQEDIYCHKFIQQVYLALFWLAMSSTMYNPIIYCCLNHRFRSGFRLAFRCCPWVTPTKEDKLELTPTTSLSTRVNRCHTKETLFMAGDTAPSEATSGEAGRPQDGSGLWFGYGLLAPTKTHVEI

[3] = molecular target: T2, Amine oxidase [flavin-containing] A (Homo sapiens, UniProt P21397); assay: DRUGMATRIX: Monoamine Oxidase MAO-A enzyme inhibition (substrate: Kynuramine); design: species or system BTI-TN-5B1-4; conditions: Not Active = under 50% inhibition at 10 µM; for pIC50: read-out: IC50
T2 sequence (P21397 whole entry): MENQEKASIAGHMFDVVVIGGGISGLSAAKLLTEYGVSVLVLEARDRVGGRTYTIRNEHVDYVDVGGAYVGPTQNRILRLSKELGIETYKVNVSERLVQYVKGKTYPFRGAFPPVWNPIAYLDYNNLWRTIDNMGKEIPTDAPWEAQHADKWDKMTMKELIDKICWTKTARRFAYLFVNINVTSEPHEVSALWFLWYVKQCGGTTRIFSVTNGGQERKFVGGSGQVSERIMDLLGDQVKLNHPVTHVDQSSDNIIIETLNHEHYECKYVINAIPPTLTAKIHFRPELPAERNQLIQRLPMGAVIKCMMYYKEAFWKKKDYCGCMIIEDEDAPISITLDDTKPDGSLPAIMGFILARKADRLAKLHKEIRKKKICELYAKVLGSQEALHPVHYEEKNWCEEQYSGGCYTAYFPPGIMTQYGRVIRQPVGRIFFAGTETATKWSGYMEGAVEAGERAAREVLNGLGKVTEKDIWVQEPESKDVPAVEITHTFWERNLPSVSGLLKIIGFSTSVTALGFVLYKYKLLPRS

[4] = molecular target: T3, Muscarinic acetylcholine receptor M5 (Homo sapiens, UniProt P08912); type: cell membranes, CHO-K1, Membrane; conditions: cho-k1; note: in other assays of this panel Not Active means under 50% inhibition at 10 µM
T3 sequence (P08912 whole entry): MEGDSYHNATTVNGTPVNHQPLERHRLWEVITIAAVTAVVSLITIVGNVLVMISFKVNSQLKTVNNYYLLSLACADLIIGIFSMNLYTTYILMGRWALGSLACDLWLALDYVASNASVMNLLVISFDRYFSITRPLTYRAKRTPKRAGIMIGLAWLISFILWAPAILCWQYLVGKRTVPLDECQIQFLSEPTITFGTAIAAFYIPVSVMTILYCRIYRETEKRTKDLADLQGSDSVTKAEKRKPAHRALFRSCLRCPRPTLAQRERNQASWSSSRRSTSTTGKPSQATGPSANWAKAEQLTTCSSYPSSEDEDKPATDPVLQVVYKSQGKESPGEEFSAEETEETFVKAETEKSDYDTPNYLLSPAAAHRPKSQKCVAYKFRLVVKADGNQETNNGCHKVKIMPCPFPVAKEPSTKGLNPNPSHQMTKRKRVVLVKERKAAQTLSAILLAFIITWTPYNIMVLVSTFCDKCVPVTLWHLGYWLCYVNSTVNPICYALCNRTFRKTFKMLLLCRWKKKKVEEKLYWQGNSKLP

[5] = DRUGMATRIX: Nicotinic Acetylcholine radioligand binding (ligand: [125I] Epibatidine); type: cell membranes, Membrane; conditions: imr-32; Not Active = under 50% inhibition at 10 µM
[6] = DRUGMATRIX: Purinergic P2X radioligand binding (ligand: [3H] alpha, beta-Methylene-ATP); type: cell membranes, Oryctolagus cuniculus, New Zealand albino, Urinary bladder, Membrane; conditions: Not Active = under 50% inhibition at 10 µM
[7] = molecular target: Mitogen-activated protein kinase 14 (Homo sapiens, UniProt Q16539); design: species or system Escherichia coli;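 note: inhibition of p38alpha enzyme activity in a biochemical kinase assay, with myelin basic protein serving as substrate; in other assays of this panel Not Active means under 50% inhibition at 10 µM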
Chain of Mitogen-activated protein kinase 14 (Q16539 whole entry): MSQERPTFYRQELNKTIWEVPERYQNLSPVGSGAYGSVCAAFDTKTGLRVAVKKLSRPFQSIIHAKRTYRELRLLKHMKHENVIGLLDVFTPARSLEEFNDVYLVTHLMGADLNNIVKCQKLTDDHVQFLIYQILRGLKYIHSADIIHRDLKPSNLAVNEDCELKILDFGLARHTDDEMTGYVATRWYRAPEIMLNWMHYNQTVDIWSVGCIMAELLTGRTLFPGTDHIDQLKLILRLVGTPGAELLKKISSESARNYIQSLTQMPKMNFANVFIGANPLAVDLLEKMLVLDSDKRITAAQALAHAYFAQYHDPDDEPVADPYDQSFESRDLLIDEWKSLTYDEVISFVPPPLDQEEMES

COc1ccccc1C(=O)N1CCC(Cc2ccccc2)CC1
Not Active: IC50 [1] | Ki [1] | IC50 [2] | IC50 ([3]; bti-tn-5b1-4) | IC50 [4] | IC50 [5] | Ki [5] | IC50 [6] | Ki [6]

Cc1ccccc1C(=O)N1CCC(Cc2ccccc2)CC1
Not Active: IC50 [1] | Ki [1] | IC50 [2] | IC50 ([3]; bti-tn-5b1-4) | IC50 [4] | IC50 [5] | Ki [5] | IC50 [6] | Ki [6]
6.48: pIC50 ([7]; read-out: IC50)

O=C1CC[C@H](N2C(=O)c3ccccc3C2=O)C(=O)N1
Not Active: IC50 [1] | Ki [1] | IC50 [2] | IC50 ([3]; bti-tn-5b1-4) | IC50 [4] | IC50 [5] | Ki [5] | IC50 [7] | IC50 [6] | Ki [6]

N=C(Nc1ccccc1)Nc1ccccc1
Not Active: IC50 [1] | Ki [1] | IC50 [2] | IC50 ([3]; bti-tn-5b1-4) | IC50 [4] | IC50 [5] | Ki [5] | IC50 [7] | IC50 [6] | Ki [6]

C[C@@H](O)[C@H](CO)NC(=O)[C@@H]1CSSC[C@H](NC(=O)[C@H](N)Cc2ccccc2)C(=O)N[C@@H](Cc2ccccc2)C(=O)N[C@H](Cc2c[nH]c3ccccc23)C(=O)N[C@@H](CCCCN)C(=O)N[C@@H]([C@@H](C)O)C(=O)N1 (H-[dF]CF[dW]KTC-{Threoninol(2S,3R)}; disulfide 2-7)
Not Active: IC50 [1] | Ki [1] | IC50 [2] | IC50 ([3]; bti-tn-5b1-4) | IC50 [4] | IC50 [5] | Ki [5] | IC50 [7] | IC50 [6] | Ki [6]

S=C=Nc1cccc2ccccc12 [1-NAPHTHYLISOTHIOCYANATE]
Not Active: IC50 [1] | Ki [1] | IC50 [2] | IC50 [4] | IC50 [5] | Ki [5] | IC50 [7] | IC50 [6] | Ki [6]
4.65: pIC50 [3]

C[C@](O)(CS(=O)(=O)c1ccc(F)cc1)C(=O)Nc1ccc(C#N)c(C(F)(F)F)c1 [(R)-BICALUTAMIDE]
Not Active: IC50 [1] | Ki [1] | IC50 [2] | IC50 ([3]; bti-tn-5b1-4) | IC50 [4] | IC50 [5] | Ki [5] | IC50 [7] | IC50 [6] | Ki [6]

CCCC(=O)Nc1ccc(OCC(O)CNC(C)C)c(C(C)=O)c1 (stereo unspecified) [ACEBUTOLOL]
Not Active: IC50 [1] | Ki [1] | IC50 [2] | IC50 ([3]; bti-tn-5b1-4) | IC50 [4] | IC50 [5] | Ki [5] | IC50 [7] | IC50 [6] | Ki [6]

CC(=O)Nc1ccc(O)cc1 [ACETAMINOPHEN]
Not Active: IC50 [1] | Ki [1] | IC50 [2] | IC50 ([3]; bti-tn-5b1-4) | IC50 [4] | IC50 [5] | Ki [5] | IC50 [7] | IC50 [6] | Ki [6]

COc1cc2c(c3oc(=O)c4c(c13)CCC4=O)[C@@H]1C=CO[C@@H]1O2 [AFLATOXIN]
Not Active: IC50 [1] | Ki [1] | IC50 [2] | Ki [2] | IC50 ([3]; bti-tn-5b1-4) | Ki ([3]; bti-tn-5b1-4) | IC50 [4] | Ki [4] | IC50 [5] | Ki [5] | IC50 [7] | Ki [7] | IC50 [6] | Ki [6]

N=C(N)NC(=O)c1nc(Cl)c(N)nc1N [AMILORIDE]
5.41: pIC50 [3]
Not Active: IC50 [1] | Ki [1] | IC50 [2] | IC50 [4] | IC50 [5] | Ki [5] | IC50 [7] | IC50 [6] | Ki [6]

Cc1cc(=O)n(-c2ccccc2)n1C [ANTIPYRINE]
Not Active: IC50 [1] | Ki [1] | IC50 [2] | IC50 ([3]; bti-tn-5b1-4) | IC50 [4] | IC50 [5] | Ki [5] | IC50 [7] | IC50 [6] | Ki [6]

CN1C(=O)COc2c(C(=O)NC3CN4CCC3CC4)cc(Cl)cc21 (stereo unspecified) [AZASETRON]
Not Active: IC50 [1] | Ki [1] | IC50 [2] | IC50 ([3]; bti-tn-5b1-4) | IC50 [4] | IC50 [5] | Ki [5] | IC50 [7] | IC50 [6] | Ki [6]

C[C@H]1C[C@H]2[C@@H]3CCC4=CC(=O)C=C[C@]4(C)[C@@]3(Cl)[C@@H](O)C[C@]2(C)[C@@]1(O)C(=O)CO [BECLOMETHASONE]
Not Active: IC50 [1] | Ki [1] | IC50 [2] | IC50 ([3]; bti-tn-5b1-4) | IC50 [4] | IC50 [5] | Ki [5] | IC50 [7] | IC50 [6] | Ki [6]

CCOC(=O)[C@H](CCc1ccccc1)N[C@H]1CCc2ccccc2N(CC(=O)O)C1=O [BENAZEPRIL]
Not Active: IC50 [1] | Ki [1] | IC50 [2] | IC50 ([3]; bti-tn-5b1-4) | IC50 [4] | IC50 [5] | Ki [5] | IC50 [7] | IC50 [6] | Ki [6]

Nc1c(CC(=O)O)cccc1C(=O)c1ccc(Br)cc1 [BROMFENAC]
Not Active: IC50 [1] | Ki [1] | IC50 [2] | IC50 ([3]; bti-tn-5b1-4) | IC50 [4] | IC50 [5] | Ki [5] | IC50 [7] | IC50 [6] | Ki [6]

CCCCN1CCCCC1C(=O)Nc1c(C)cccc1C.Cl (stereo unspecified) [BUPIVACAINE HYDROCHLORIDE]
Not Active: IC50 [1] | Ki [1] | IC50 [2] | IC50 ([3]; bti-tn-5b1-4) | IC50 [4] | IC50 [5] | Ki [5] | IC50 [7] | IC50 [6] | Ki [6]

O=C1CC2(CCCC2)CC(=O)N1CCCCN1CCN(c2ncccn2)CC1 [BUSPIRONE]
Not Active: IC50 [1] | Ki [1] | IC50 [2] | IC50 ([3]; bti-tn-5b1-4) | IC50 [4] | IC50 [5] | Ki [5] | IC50 [7] | IC50 [6] | Ki [6]

C[C@@]12C(=O)OC(=O)[C@]1(C)[C@H]1CC[C@@H]2O1 [CANTHARIDIN]
Not Active: IC50 [1] | Ki [1] | IC50 [2] | IC50 ([3]; bti-tn-5b1-4) | IC50 [4] | IC50 [5] | Ki [5] | IC50 [7] | IC50 [6] | Ki [6]

C/C=C/C[C@@H](C)[C@@H](O)[C@H]1C(=O)N[C@@H](CC)C(=O)N(C)CC(=O)N(C)[C@@H](CC(C)C)C(=O)N[C@@H](C(C)C)C(=O)N(C)[C@@H](CC(C)C)C(=O)N[C@@H](C)C(=O)N[C@H](C)C(=O)N(C)[C@@H](CC(C)C)C(=O)N(C)[C@@H](CC(C)C)C(=O)N(C)[C@@H](C(C)C)C(=O)N1C [CYCLOSPORINE]
Not Active: IC50 [1] | Ki [1] | IC50 ([3]; bti-tn-5b1-4) | IC50 [4] | IC50 [5] | Ki [5] | IC50 [7] | IC50 [6] | Ki [6]

OC(CCN1CCCCC1)(c1ccccc1)C1CCCCC1 (stereo unspecified) [TRIHEXYPHENIDYL]
Not Active: IC50 [1] | Ki [1] | IC50 [2] | IC50 ([3]; bti-tn-5b1-4) | IC50 [5] | Ki [5] | IC50 [7] | IC50 [6] | Ki [6]
